Drawing on ChEMBL document CHEMBL1127093, “Competitive NMDA receptor antagonists: synthesis of -ketophosphonate-substituted piperidine carboxylic acid derivatives” (Bioorg Med Chem Lett, 1993), this text covers IC50 for five compounds.

pIC50: −log10 of the molar value.

The experiment deals with Glutamate NMDA receptor. Briefly: Binding potency for NMDA site of the glutamate receptor complex using rat brain cortical membranes in a competitive binding assay with [3H]CPP as the radioligand. The class given is cell membranes, Membrane.
Usually pIC50 stands for −log10 of the IC50, conventionally taken in molar units. High values mean a small IC50, low ones a large IC50. Compound `C[C@@H]1CCN[C@@H](C(=O)O)[C@H]1C(=O)CP(=O)(O)O` showed a pIC50 of 7.82.

Regarding `C[C@]1(C(=O)CP(=O)(O)O)C=CCN[C@H]1C(=O)O`, the pIC50 was 8.49.

Consider `O=C(CP(=O)(O)O)[C@H]1CCCN[C@H]1C(=O)O`, for which the pIC50 is 7.40.

`O=C(CP(=O)(O)O)C1=CCCN[C@H]1C(=O)O` had a negative logarithm of the IC50 (pIC50) of 8.12.

`C[C@]1(C(=O)CP(=O)(O)O)CCCN[C@H]1C(=O)O` gave a pIC50 of 6.49.
